Experimental data: EP1845096A1, “12-Aza-epothilones, process for their preparation and their use as antiproliferative agents” (ETH Zürich, priority 2006, dated 2007)
Where two headings read alike, the source gives them in different places.

Experiments:
porcine brain αβ-tubulin = porcine brain αβ-tubulin (Sus scrofa, UniProt P02554); test: Tubulin polymerization (turbidimetry at 340 nm); type: biochemical
Method: Tubulin is isolated as pure αβ-tubulin from fresh pig brain according to the method of Castoldi and Popov (Protein Expr. Purif. 2003, 32, 83-88). Working stock solutions of αβ-tubulin are stored at -80°C. Freshly thawed αβ-tubulin is centrifuged and then incubated with the compounds to be tested in suitable solvents and buffers, guanosine-5'-triphosphate (GTP), and glutamate in a 96-well plate, as described in more detail below in the Examples. The polymerization is monitored real-time at 340 nm in a temperature-controlled TECAN GeniosPro spectrophotometer. UV absorption of compounds is subtracted from absorption curves.
Tubulin was isolated as pure αβ-tubulin from fresh pig brain according to the method of Castoldi and Popov (Protein Expr. Purif. 2003, 32, 83-88). Fresh brains were obtained from the local slaughterhouse and processed immediately without prior cooling. 150-200 g cleaned pig brain was put into ice-cooled depolymerization buffer (50 mM MES [2-morpholinoethanesulphonic acid], 1 mM CaCl2, adjusted to pH 6.9 with KOH) and homogenized in a Polytron mixer. The homogenate was centrifuged in a Sorvall SLA-1500 rotor at 14500 rpm for 60 min. The supernatant was transferred into an Erlenmeyer flask in high-molarity PIPES buffer (1 M PIPES [1,4-piperazinediethanesulfonic acid], 10 mM MgCl2, 20 mM EGTA [ethylene glycol-bis-2(2-aminoethyl)-tetraacetic acid] adjusted to pH 6.9 with KOH) plus […] (1.5 mM final concentration) and glycerol (98%) ad 300 ml. The resulting suspension was mixed and incubated at 37°C for 1 hour. Aliquots were transferred into ultracentrifuge tubes and centrifuged in a Beckman Ti50.2 rotor at.32500 rpm (96000 g) for 75 min at 30°C. The microtubule protein pellets were resuspended in depolymerization buffer and put on ice prior to ultracentrifugation at 4°C. The procedure was repeated for two polymerization cycles (total of 3 cycles) and the final αβ-tubulin pellets were resuspended in ice-cold Brinkley Buffer (BRB80; 80 mM PIPES, 1 mM MgCl2, 1 mM EGTA adjusted to pH 6.8 with KOH) prior to shock-freezing in liquid nitrogen and subsequent storage at -80°C. αβ-tubulin purity and concentration were determined by SDS-PAGE gel electrophoresis and spectrophotometrically (A = ε x c x d with a given extinction coefficient of 115'000 M^-1cm^-1) at 280 nm. This procedure typically yielded 60-100 mg of αβ-tubulin per 100 g of brain.
Freshly thawed αβ-tubulin was centrifuged at 5000 g for 5 min at 5°C and then incubated with additional BRB80 buffer, drugs, DMSO vehicle, guanosine-5'-triphosphate (GTP) / glutamate (25 mM /2.7 M), respectively, in a 96-well plate in either 50 or 100 µl volumes. Experiments were either carried out in a 96-well quartz plate or in normal 96-well polystyrene plates (Falcon). The polymerization was monitored real-time at 340 nm in a temperature-controlled TECAN GeniosPro spectrophotometer. Depending on the specific experiment, the temperature was set either to room temperature (actual measuring temperature was 24-27°C) or 37°C. […] UV absorption of compounds was subtracted from absorption curves. All experiments, along with both negative (untreated αβ-tubulin) and vehicle controls, were carried out in triplicate. Experiments were performed at least with two different αβ-tubulin batches.

A549 = test: Human cancer cell growth inhibition, methylene blue staining, A549; type: cell-based
Method: (§1) Stock solutions of the test compounds (2 mM) are prepared in DMSO and stored at -20°C. Human KB-31 and (multidrug-resistant, P-gp170 expressing) KB-8511 epidermoid carcinoma cells (Akiyama et al., Somat. Cell. Mol. Genetics 1985, 11, 117-120), which are both derivatives of the KB cell line (ATCC) and are human epidermis carcinoma cells, are employed. KB 31 cells may be cultivated in mono-layers using Dulbecco's modified Eagle's medium (D-MEM) with 10% foetal calf serum (M.A. Bioproducts), L-glutamine (Flow), penicillin (50 units/ml) and streptomycin (50 µg/ml) (Flow); they then grow at a duplication time of ca. 22 hours, and their relative plating efficiency is ca. 60%. KB-8511 is a variant derived from the KB-31 cell line, which is obtained using colchicine treatment cycles, and has an approximately 40 times relative resistance to colchicine compared with KB-31 cells. The cells are incubated at 37°C in an incubator with 5% v/v CO2 and at 80% relative humidity with MEMAlpha medium which contains ribonucleosides and desoxyribonucleosides (Gibco BRL), complemented with 10 IU penicillin, 10 µg/ml streptomycin and 5% foetal calf serum. The cells are seeded in a quantity of 1.5 x 10^3 cells/well in 96-well microtitre plates, and incubated over night. Serial dilutions of the test compounds in culture medium are added on day 1. […] After washing, the dye is eluted with 3% HCl and the optical density measured at 665 nm with a GeniosPro plate spectrophotometer (Tecan, Switzerland). IC50 values are determined by adaptation of mathematical curves, using the formula [(OD treated)-(OD start) [/] (OD control)-(OD start)] x 100. The IC50 is defined as the concentration of a test compound at the end of the incubation period, which led to 50% of the cell count per well compared with the control (concentration at semi-maximum inhibition of cell growth).
(§2) The preferred ranges of the IC50 values of compounds of formula (I) are given in square parentheses. A549 (lung; ATCC CCL 185) [0.01 to 100 nM], HCT-116 (colon) [0.05 to 200 nM], and PC-3M cells (prostate, hormone-insensitive derivative derived from PC-3, ATCC CRL 1435) [0.05 to 500 nM] were grown in RPMI-1640 medium supplemented with 10% FBS.

HCT-116 = test: Human cancer cell growth inhibition, methylene blue staining, HCT-116; type: cell-based; conditions: read-out: IC50 HCT-116
Method: as §1, §2

PC-3M = test: Human cancer cell growth inhibition, methylene blue staining, PC-3M; type: cell-based; conditions: read-out: IC50 PC-3M
Method: as §1, §2

KB-31 = test: Human cancer cell growth inhibition, methylene blue staining, KB-31; type: cell-based; conditions: read-out: IC50 KB-31
Method: as §1, with “The cells are incubated at 37°C in an incubator with 5% v/v CO2 and at 80% relative humidity with MEMAlpha medium which contains ribonucleosides and desoxyribonucleosides (Gibco BRL), complemented with 10 IU penicillin, 10 µg/ml streptomycin and 5% foetal calf serum.” left out, “night.” for “night. Serial dilutions of the test compounds in culture medium are added on day 1.”, “(OD control)-(OD start)] x 100. The IC50 is defined as the concentration of a test compound at the end of the incubation period, which led to 50% of the cell count per well compared with the control (concentration at semi-maximum inhibition of cell growth).” left out

[1] = system: drug-sensitive human cancer cells; test: Potency comparison on drug-sensitive human cancer cell lines (from Table 1); type: cell-based; conditions: potency ratio versus reference compound B
Method: as §1, with “The cells are incubated at 37°C in an incubator with 5% v/v CO2 and at 80% relative humidity with MEMAlpha medium which contains ribonucleosides and desoxyribonucleosides (Gibco BRL), complemented with 10 IU penicillin, 10 µg/ml streptomycin and 5% foetal calf serum.” left out, “night.” for “night. Serial dilutions of the test compounds in culture medium are added on day 1.”, “(OD control)-(OD start)] x 100. The IC50 is defined as the concentration of a test compound at the end of the incubation period, which led to 50% of the cell count per well compared with the control (concentration at semi-maximum inhibition of cell growth).” left out

porcine brain αβ-tubulin, sequence (P02554 whole entry): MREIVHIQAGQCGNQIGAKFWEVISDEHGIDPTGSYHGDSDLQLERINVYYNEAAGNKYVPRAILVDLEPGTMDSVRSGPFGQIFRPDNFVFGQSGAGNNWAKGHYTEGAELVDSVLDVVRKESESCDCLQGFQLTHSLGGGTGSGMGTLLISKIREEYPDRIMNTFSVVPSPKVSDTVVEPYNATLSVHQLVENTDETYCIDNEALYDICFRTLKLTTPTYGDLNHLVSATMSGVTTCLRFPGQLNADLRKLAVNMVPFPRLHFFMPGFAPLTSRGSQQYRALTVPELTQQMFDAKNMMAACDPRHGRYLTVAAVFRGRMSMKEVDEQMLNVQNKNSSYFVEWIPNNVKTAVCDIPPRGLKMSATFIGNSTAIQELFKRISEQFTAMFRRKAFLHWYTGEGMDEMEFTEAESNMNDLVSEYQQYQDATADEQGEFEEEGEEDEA
porcine brain αβ-tubulin, sequence (P02550 whole entry partner): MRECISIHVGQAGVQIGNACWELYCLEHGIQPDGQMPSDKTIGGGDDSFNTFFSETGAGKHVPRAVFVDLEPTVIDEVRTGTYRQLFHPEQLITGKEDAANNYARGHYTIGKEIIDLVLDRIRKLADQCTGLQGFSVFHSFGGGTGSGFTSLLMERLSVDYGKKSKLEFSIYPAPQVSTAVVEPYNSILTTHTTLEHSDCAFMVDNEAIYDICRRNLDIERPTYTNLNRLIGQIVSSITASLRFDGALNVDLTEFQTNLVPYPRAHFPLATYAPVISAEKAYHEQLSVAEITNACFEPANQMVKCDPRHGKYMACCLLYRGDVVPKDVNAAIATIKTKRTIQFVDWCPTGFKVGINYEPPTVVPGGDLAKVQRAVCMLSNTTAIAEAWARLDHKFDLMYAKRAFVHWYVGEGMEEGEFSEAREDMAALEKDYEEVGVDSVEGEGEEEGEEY

Row | Compound | EC50 (porcine brain αβ-tubulin) [nM] | IC50 (A549; A549, read-out: IC50 A549) [nM] | IC50 (HCT-116; HCT-116, 72 h) [nM] | IC50 (PC-3M; PC-3M) [nM] | IC50 (KB-31; KB 3-1, 72 h) [nM] | EC50 (porcine brain αβ-tubulin; concentration required to induce 50% of the maximum αβ-tubulin polymerization achievable with the respective compound, 10 µM of porcine brain αβ-tubulin, turbidity at 340 nm, mean ± standard deviation, read-out: EC50 Tubulin polymerization) [nM] | IC50 (A549; A549: lung, cells exposed, mean of at least three experiments ± standard deviation, read-out: IC50 A549) [nM] | IC50 (HCT-116; HCT-116: colon, cells exposed for 72 h, mean of at least three experiments ± standard deviation) [nM] | IC50 (PC-3M; PC-3M: prostate, cells exposed, mean of at least three experiments ± standard deviation) [nM] | IC50 (KB-31; KB 3-1, KB-31: cervical (or cervix), parental line, cells exposed for 72 h) [nM] | more potent against drug-sensitive human cancer cells than aza-epothilone B [1] [fold]
1 | C/C(=C\c1csc(C)n1)[C@@H]1CCN(C(=O)OC(C)(C)C)CCC[C@H](C)[C@H](O)[C@@H](C)C(=O)C(C)(C)[C@@H](O)CC(=O)O1 [B, reference compound] | 5600 ± 400 | 130 ± 24 | 110 ± 19 | 126 ± 22 | 31 |  |  |  |  |  | 
2 | Cc1nc2cc([C@@H]3CCN(C(=O)OC(C)(C)C)CCC[C@H](C)[C@H](O)[C@@H](C)C(=O)C(C)(C)[C@@H](O)CC(=O)O3)ccc2n1C [Compound 1, (2S,9S,10S,11R,14S)-tert-butyl-2-(1,2-dimethyl-1H-benzo[d]imidazol-5-yl)-10,14-dihydroxy-9,11,13,13-tetramethyl-12,16-dioxo-1-oxa-5-azacyclohexadecane-5-carboxylate] |  |  |  |  |  | 3900 ± 600 | 1.9 ± 0.4 | 1.6 ± 0.5 | 2.3 ± 0.6 | 0.35 | > 60
3 | Cc1nc2cc([C@@H]3CCN(C(=O)OC(C)(C)C)C/C=C/[C@H](C)[C@H](O)[C@@H](C)C(=O)C(C)(C)[C@@H](O)CC(=O)O3)ccc2n1C [A, (2S,9S,10S,11R,14S,E)-tert-butyl-2-(1,2-dimethyl-1H-benzo[d]imidazol-5-yl)-10,14-dihydroxy-9,11,13,13-tetramethyl-12,16-dioxo-1-oxa-5-azacyclohexadec-7-ene-5-carboxylate, reference compound] | 9100 ± 700 | 920 ± 85 | 1010 ± 71 | 973 ± 64 |  |  |  |  |  |  | 
4 | C/C(=C\c1csc(C)n1)[C@@H]1C[C@@H]2O[C@@H]2CCC[C@H](C)[C@H](O)[C@@H](C)C(=O)C(C)(C)[C@@H](O)CC(=O)O1 [C, Epothilone A, reference compound] | 4600 ± 500 | 3.2 ± 0.5 | 2.2 ± 0.3 | 3.4 ± 0.4 |  |  |  |  |  |  | 
5 | Cc1nc2cc([C@@H]3CCN(C(=O)OCC(F)(F)F)CCC[C@H](C)[C@H](O)[C@@H](C)C(=O)C(C)(C)[C@@H](O)CC(=O)O3)ccc2n1C [Compound 3] | 5100 ± 500 | 11.5 ± 1.8 | 17.1 ± 3.3 | 6.3 ± 2.1 |  |  |  |  |  |  | 
6 | CCOC(=O)N1CCC[C@H](C)[C@H](O)[C@@H](C)C(=O)C(C)(C)[C@@H](O)CC(=O)O[C@H](c2ccc3c(c2)nc(C)n3C)CC1 [Compound 2] | 5400 ± 400 | 18 ± 3.1 | 23.9 ± 2.9 | 12.3 ± 1.1 |  |  |  |  |  |  | 
7 | Cc1nc2cc([C@@H]3CCN(c4ccc([N+](=O)[O-])c5nonc45)CCC[C@H](C)[C@H](O)[C@@H](C)C(=O)C(C)(C)[C@@H](O)CC(=O)O3)ccc2n1C [Compound 17, (2S,9S,10S,11R,14S)-2-(1,2-dimethyl-1H-benzo[d]imidazol-5-yl)-10,14-dihydroxy-9,11,13,13-tetramethyl-5-(7-nitrobenzo[c][1,2,5]oxadiazol-4-yl)-1-oxa-5-azacyclohexadecane-12,16-dione] | 7200 ± 600 | 329 ± 237 | 206 ± 8 | 244 ± 45 |  |  |  |  |  |  | 
